The series is described as follows: Dissolution testing, simulated empty stomach (USP 31 NF26 Apparatus 2, 0.1N HCl). Type of series: physicochemical. Conditions: for HCBT Released / HCBT Released, Percent of Original Dose: 80 mg dose, 0.1N HCl 250 ml 37° C. The protocol:
The resinate or pure HCBT was weighed to determine the dose to be tested. The resinate or pure HCBT powder was added directly to the vessel for dissolution testing without the use of a capsule or tablet and its associated excipients. The conditions in the first stage to simulate dissolution in an empty stomach were as follows:
The above resinate of the invention having an 11.5% HCBT loading was tested at dosages of 10 mg, 40 mg and 80 mg HCBT. The resinate of the invention having 60.7% HCBT loading was tested at dosages of 10 and 80 mg HCBT. […] A given dose was placed in the dissolution apparatus and stirred for a given length of time. At the end of that time, the quantity of HCBT released was determined by high pressure liquid chromatography.

Here are results for one molecule from patent US9211292B2, “Preventing or reducing drug abuse and overdose events” (ALITAIR PHARMACEUTICALS INC, priority 2011, dated 2015).

Take `COc1ccc2c3c1O[C@H]1C(=O)CC[C@H]4[C@@H](C2)N(C)CC[C@]314` [Pure HCBT, Hydrocodone bitartrate]: under “80 mg dosage in powder form, simulated empty stomach”, the “drug released (FIG. 1)” value is reported as “released essentially all of the drug”. The “HCBT Released” value by setting is: (15 min) 78.8 mg; (30 min) 79.2 mg; (45 min) 79.4 mg; (60 min) 79.6 mg. Also, the “HCBT Released, Percent of Original Dose” value is, setting by setting: (15 min) 98.6% of Original Dose; (30 min) 99.0% of Original Dose; (45 min) 99.2% of Original Dose; (60 min) 99.5% of Original Dose.
